According to patent US11311609B2, “Regulating chimeric antigen receptors” (DANA-FARBER CANCER INSTITUTE, INC., priority 2017, dated 2022):

System: CD19 positive tumor cells (Daudi, Raji)
Test: Co-culture depletion of CD19 positive tumor cells by SMART-CAR expressing Jurkat T-cells, flow cytometry with CD19-FITC antibody
Assay type: cell-based
Procedure: FIG. 28 is a schematic depicting the experimental setup used in FIG. 18 to evaluate the ability of SMART-CAR expressing Jurkat cells to deplete CD19-positive tumor cells. SMART-CAR expressing Jurkat cells are incubated with CD19-positive target tumor cells at the indicated ratio for a given amount of time (Example 25). CD19-positive target tumor cell depletion can be monitored by measuring levels of CD19.
FIG. 30 is a schematic depicting the experimental setup used in FIG. 21 and described in Example 26 to illustrate the chemical control of SMART-CAR expression and subsequent activity against CD19 positive tumor cells using dFKBP7. SMART-CAR expressing Jurkat cells were pretreated with dFKBP7 at 250 nM for 4 hours to allow for maximal degradation of SMART-CAR. The Jurkat cells were then harvested and washed three times to remove dFKBP7. Jurkat cells were split into two experimental arms. The first arm (top, blue) was treated with DMSO control and the second arm (bottom, green) was retreated with 250 nM dFKBP7. The two experimental arms were then mixed at a 1:1 ratio with CD19 positive tumor cells and CD19-positive tumor cells monitored by flow cytometry.
FIG. 33 is a line plot tracking CD19 positive tumor cells during alternating exposure and removal of 250 nM of dFKBP7 in a 30 hour time course. […]
FIG. 28 illustrates the experimental design to evaluate the functionality of SMART-CAR expressing Jurkat T-cells to deplete CD19 positive target tumor cells. […] Co-cultured cells were pelleted, stained with a CD19-FITC antibody, fixed, and CD19 levels measured via flow cytometry.
SMART-CAR expressing Jurkat cells were pretreated with dFKBP7 at 250 nM for 4 hours to allow for maximal degradation of SMART-CAR. […] The two experimental arms were then mixed at a 1:1 ratio with CD19 positive tumor cells and CD19-positive tumor cells monitored by flow cytometry. […]
FIG. 32 is a graph that exemplifies the linear relationship between number of SMART-CAR expressing T-cells and functional killing of CD19 positive target tumor cells. […] CD19 positive tumor cells were then quantified using flow cytometry with a directly conjugated CD19-FITC antibody. […]

## CC[C@H](C(=O)N1CCCC[C@H]1C(=O)O[C@H](CCc1ccc(OC)c(OC)c1)c1cccc(OCC(=O)NCCCOCCOCCOCCCNC(=O)COc2cccc3c2C(=O)N(C2CCC(=O)NC2=O)C3=O)c1)c1cc(OC)c(OC)c(OC)c1 (stereo partly shown) [dFKBP7]
1:3 ratio, 250 nM, 4 HR to 24 HR
  CD19 positive target tumor cell depletion in the presence of dFKBP7: halted
1:3 ratio, 24 HR-30 HR
  CD19 positive target tumor cell depletion after removal of dFKBP7: rapid target tumor cell depletion
CD19 positive Daudi cells, 1:3 ratio, 24 hours, indicated concentrations
  Daudi cell depletion, dose response: Daudi cell depletion was rescued
Daudi and Raji, 1:1 ratio, retreatment with 250 nM dFKBP7
  CD19 positive tumor cells: not affected
